From patent US20110301233A1, “Novel Polyisoprenylated Benzophenone Derivatives from Garcinia paucinervis” (priority 2010, published 2011) come the findings set out here.

Format in all cases: cell-based
The subject of one test is HeLa cells. Put plainly: MTT assay, HeLa cell growth inhibition. Particulars: for IC50: HeLa cells treated for 72 h, MTT; for HeLa cell growth inhibiting effect: HeLa cells, 72 h, IC50 below or near 10. As for the experimental part: IC50 of four new compounds was measured using MTT assay. MTT powder was dissolved in PBS at a concentration of 5 mg/mL. For MTT assay, 10 μL of MTT solution was added into each well of a 96-well plate. After 2 h incubation at 37° C., 100 μL 10% SDS solution with 0.01 M HCl was added to dissolve the purple crystals. After 24 h incubation, the optical density (OD) readings at 595 nm were measured using a plate reader. Firstly, 2,500 HeLa cells suspended in 100 μL MEM medium were seeded respectively in a 96-well plate. After 24 h incubation, fresh medium that contained various concentrations of each compound were added into the 96-well plate and changed the old medium. The concentrations applied were ranged from 100 μM to 1.5625 μM, which was achieved by doing two-fold dilutions for 6 times. The OD values of the control group at 0 h and 72 h together with the compound treated groups at 72 h from the MTT assay were measured using a plate reader. IC50 is the concentration of a compound inhibiting 50% of the cell growth.

Test [1] concerns HeLa-C3 cells. Kind of test: Apoptosis-inducing effect: caspase-3 activation, YFP/CFP emission ratio (FRET biosensor) in HeLa-C3 cells. Particulars: for Apoptotic effect at 25 μM / Apoptotic effect at 50 μM / Apoptotic effect at 100 μM: 72 h. As for the experimental part: The biological activity of Compounds 1-4 was evaluated for apoptosis-inducing effects using genetically engineered HeLa-C3 cells that can produce a fluorescent biosensor capable of detecting caspase-3 activation. These cells emit a green light under normal growth conditions and change to a blue light when caspase-3 is activated during apoptosis to cleave the sensor protein inside the cells. This color change allows one to use a fluorescent plate reader to directly detect the activation level of caspase-3 in HeLa-C3 cells during the course of the compound treatment in a noninvasive way. Based on our previous test results, the emission ratio of YFP (yellow fluorescent protein)/CFP (cyanfluorescent proteins) is usually between 6 and 8 in normal cells, and this ratio will decrease to a value below 3 if a compound can activate caspase-3 and kill cancer cells. Therefore, any compound that can reduce the YFP/CFP emission ratio to a value below 3 is considered positive in activating apoptosis.
Bioassay: The bioassay method was described in our previous paper with some modifications. All the testing samples were dissolved in DMSO to make stock solutions. The concentration of each stock was at least 1000 times higher than the working concentration. HeLa-C3 cells, which can detect apoptotic cell death involving caspase activation, were cultured in minimum essential medium (MEM) containing 10% fetal bovine serum, 100 U/ml penicillin, […] streptomycin, in a 5% CO2 humidity incubator at 37° C. The sample well for apoptotic activity testing was prepared by seeding a well on a 96-well plate with 7500 HeLa-C3 cells suspended in 100 μl culture medium. After 12-16 h incubation, the old medium was removed and 100 μl freshly prepared culture medium containing the testing sample at a certain working concentration was added to both the sample well and the corresponding background well. Culture medium containing 0.1% DMSO was the negative control while 500 nM paclitaxel was the positive control. After that, the plate was read repeatedly by a Perkin-Elmer Victor reader with excitation wavelength at 440±10 nm and emission wavelength at 486±8 nm for CFP (cyan fluorescent protein) and 535±8 nm for YFP (yellow fluorescent protein) at indicated time points. The data acquisition duration was up to 72 h. The YFP/CFP emission ratio was then calculated. The background fluorescence was measured from the wells containing only medium. After subtracting the background fluorescence from the recorded signal, net YFP and CFP readings were obtained. In this paper, Y/C emission ratio is used to represent the effect of FRET, which is equal to the net YFP reading divided by the net CFP reading from the same well. If YFP/CFP emission ratio was reduced below 3, the testing sample was considered as a good apoptotic inducer at that concentration. All samples were tested in triplicate. The whole experiment was repeated for three times.

Test [2] has as its system HeLa-C3 cells. Kind of test: Cell morphology changes during compound treatment (FIG. 5). How it is done:
Various cell morphologies were recorded at the indicated time points. The control cells have normal attached cell morphology through the course of the experiment. Cells have shrinkage and detached morphology when they were treated with either the anticancer drug paclitaxel or other compounds, confirming their ability to kill cancer cells.
In addition to detecting the caspase activation using our HeLa-C3 cells, the cell morphology changes was also examined after the treatment of the tested compounds.

In the case of `C=C1CCCC(C)(C)[C@H]1C[C@H]1C[C@@]23CC(C(C)(C)O)OC2=C(C(=O)c2ccc(O)c(O)c2)C(=O)[C@](CC=C(C)C)(C3=O)C1(C)C` (relative stereo) [Compound 4, Paucinone D], in the test on HeLa cells, the midpoint of inhibition, the IC50, lay at 5.8 ± 0.6 µM and the “HeLa cell growth inhibiting effect” value is recorded as “strong HeLa cell growth inhibiting effects”. Also, in the test on HeLa-C3 cells [1], the “Apoptotic effect at 25 μM” value is “+ (“+” means the YFP/CFP emission ratio of compound treated HeLa-C3 cells was below 3 at 72 h.)”, the “Apoptotic effect at 50 μM” value is listed as “+ (“+” means the YFP/CFP emission ratio of compound treated HeLa-C3 cells was below 3 at 72 h.)” and the “Apoptotic effect at 100 μM” value is “+ (“+” means the YFP/CFP emission ratio of compound treated HeLa-C3 cells was below 3 at 72 h.)”. Also, the cell morphology result in the test with HeLa-C3 cells [2] (25 μM, 24, 48 and 72 h) is reported as “cell shrinkage”.
In the test with HeLa cells, `CC(C)=CC[C@H]1C[C@@]23CC4(CCC(C)(C)C[C@]4(C)O)OC2=C(OC(=O)c2ccc(O)c(O)c2)C(=O)[C@](CC=C(C)C)(C3=O)C1(C)C` (relative stereo) [Compound 3, Paucinone C] registered a half-inhibitory concentration (IC50) of 24.3 ± 0.6 µM. Also, in the test on HeLa-C3 cells [1], the “Apoptotic effect at 25 μM” value is reported as “− (“−” means the YFP/CFP emission ratio of compound treated HeLa-C3 cells was above 3 at 72 h.)”, the “Apoptotic effect at 50 μM” value is listed as “+ (“+” means the YFP/CFP emission ratio of compound treated HeLa-C3 cells was below 3 at 72 h.)” and the “Apoptotic effect at 100 μM” value is recorded as “+ (“+” means the YFP/CFP emission ratio of compound treated HeLa-C3 cells was below 3 at 72 h.)”. Also, in the test on HeLa-C3 cells [1] (within 72 h at 100 μM and 50 μM), the caspase-3 activation result is listed as “could activate caspase-3”. Further, the cell morphology entry in the test on HeLa-C3 cells [2] (50 μM, 24, 48 and 72 h) was “cell shrinkage”.
Turning to `CC(=O)O[C@H]1C(=O)[C@@]2(C)[C@H]([C@H](OC(=O)c3ccccc3)[C@]3(O)C[C@H](OC(=O)[C@H](O)[C@@H](NC(=O)c4ccccc4)c4ccccc4)C(C)=C1C3(C)C)[C@]1(OC(C)=O)CO[C@@H]1C[C@@H]2O` [paclitaxel, reference compound], the cell morphology result with HeLa-C3 cells [2] (500 nM, positive control) is on record as “typical cell shrinkage morphology”.
`CC(C)=CC[C@H]1C[C@@]23CC4(CCC(C)(C)C[C@]4(C)O)OC2=C(C(=O)c2ccc(O)c(O)c2)C(=O)[C@](CC=C(C)C)(C3=O)C1(C)C` (relative stereo) [Compound 1, Paucinone A]: in the test with HeLa cells, the IC50 came out at 10 ± 0.5 µM and the “HeLa cell growth inhibiting effect” value was “strong HeLa cell growth inhibiting effects”. For the same compound, in the test with HeLa-C3 cells [1], the “Apoptotic effect at 25 μM” value is “+ (“+” means the YFP/CFP emission ratio of compound treated HeLa-C3 cells was below 3 at 72 h.)”, the “Apoptotic effect at 50 μM” value is recorded as “+ (“+” means the YFP/CFP emission ratio of compound treated HeLa-C3 cells was below 3 at 72 h.)” and the “Apoptotic effect at 100 μM” value is “+ (“+” means the YFP/CFP emission ratio of compound treated HeLa-C3 cells was below 3 at 72 h.)”. Besides, in the test with HeLa-C3 cells [2] (25 μM, 24, 48 and 72 h), the cell morphology result is reported as “cell shrinkage”.
In the case of `CC(C)=CC[C@H]1C[C@@]23CC4(CCC(C)(C)C[C@@]4(C)O)OC2=C(C(=O)c2ccc(O)c(O)c2)C(=O)[C@](CC=C(C)C)(C3=O)C1(C)C` (relative stereo) [Compound 2, Paucinone B], in the test on HeLa cells, the midpoint of inhibition, the IC50, lay at 8.2 ± 0.8 µM and the “HeLa cell growth inhibiting effect” value is given as “strong HeLa cell growth inhibiting effects”. Also, in the test with HeLa-C3 cells [1], the “Apoptotic effect at 25 μM” value is listed as “+ (“+” means the YFP/CFP emission ratio of compound treated HeLa-C3 cells was below 3 at 72 h.)”, the “Apoptotic effect at 50 μM” value was “+ (“+” means the YFP/CFP emission ratio of compound treated HeLa-C3 cells was below 3 at 72 h.)” and the “Apoptotic effect at 100 μM” value is “+ (“+” means the YFP/CFP emission ratio of compound treated HeLa-C3 cells was below 3 at 72 h.)”. In addition, the cell morphology result in the test on HeLa-C3 cells [2] (25 μM, 24, 48 and 72 h) was “cell shrinkage”.
